Results: the supplement of paper PMC3937590

Experiments:
Assay in all cases: -log10 GI50 (growth inhibition 50%) (-log10(M)); higher = more potent growth inhibition
SUM52PE = system: SUM52PE
How it was run: (§1)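 A value carrying a < qualifier equals the top dose tested. Each compound was tested in triplicate on breast cancer cell lines for 72 hours at nine doses in 1:5 serial dilution, using a luminescence read-out against a time-zero plate. Nonlinear least squares fitting of a Gompertz curve gave GI50, the molar concentration causing the set level of growth inhibition, which is reported as its negative logarithm. The logarithm is base 10.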

HCC38 = system: HCC38
How it was run: as §1

HCC70 = system: HCC70
How it was run: as §1

T47D_KBluc = system: T47D_KBluc
How it was run: as §1

184B5 = system: 184B5
How it was run: as §1

SUM229PE = system: SUM229PE
How it was run: as §1

MDAMB453 = system: MDAMB453
How it was run: as §1

CAMA1 = system: CAMA1
How it was run: as §1

MCF12A = system: MCF12A
How it was run: as §1

HCC1419 = system: HCC1419
How it was run: as §1

MDAMB157 = system: MDAMB157
How it was run: as §1

SKBR3 = system: SKBR3
How it was run: as §1

ZR751 = system: ZR751
How it was run: as §1

BT20 = system: BT20
How it was run: as §1

184A1 = system: 184A1
How it was run: as §1

SUM159PT = system: SUM159PT
How it was run: as §1

UACC812 = system: UACC812
How it was run: as §1

AU565 = system: AU565
How it was run: as §1

MDAMB231 = system: MDAMB231
How it was run: as §1

SUM185PE = system: SUM185PE
How it was run: as §1

SMILES | -log10 GI50 (SUM52PE) | -log10 GI50 (HCC38) | -log10 GI50 (HCC70) | -log10 GI50 (T47D_KBluc) | -log10 GI50 (184B5) | -log10 GI50 (SUM229PE) | -log10 GI50 (MDAMB453) | -log10 GI50 (CAMA1) | -log10 GI50 (MCF12A) | -log10 GI50 (HCC1419) | -log10 GI50 (MDAMB157) | -log10 GI50 (SKBR3) | -log10 GI50 (ZR751) | -log10 GI50 (BT20) | -log10 GI50 (184A1) | -log10 GI50 (SUM159PT) | -log10 GI50 (UACC812) | -log10 GI50 (AU565) | -log10 GI50 (MDAMB231) | -log10 GI50 (SUM185PE)
CCC[C@H](N[C@H]1CCc2cc(F)cc(F)c2C1)C(=O)Nc1cn(C(C)(C)CNCC(C)(C)C)cn1 | 5.24 | < 4.18 | 5.63 | < 4.18 | 4.86 | < 4.18 | 4.59 | < 4.18 | < 4.18 | < 4.18 | 4.88 | 4.91 | 4.72 | 4.76 | 5.87 | < 4.18 | < 4.18 | 4.98 | < 4.18 | 4.84
CNC(=O)c1c(F)cccc1Nc1nc(Nc2cc3c(cc2OC)CCN3C(=O)CN(C)C)nc2[nH]ccc12 | 5.68 | 5 | 5.18 | 5.13 | 6.32 | 6.2 | 4.96 | 5.08 | 5.74 | 5.19 | 5.06 | 4.99 | 5.17 | 4.86 | 6.4 | 5.47 | 5.31 | 5.63 | 5.32 | 5.48
COc1cc2c(Nc3ccc(NC(=O)c4ccccc4)cc3)ncnc2cc1OCCCN1CCOCC1 | 5.46 | 6.21 | 5.85 | < 4.3 | < 4.3 | 5.93 | < 4.3 | 5.02 | 5.12 | 5.32 | 5.66 | 4.76 | 5.47 | 5.33 | < 4.3 | 6.14 | 5.41 | 5.82 | < 4.3 | 4.5
COc1ccc(-c2cc3c(C)nc(N)nc3n([C@H]3CC[C@H](OCCO)CC3)c2=O)cn1 | 7.26 | 6.51 | 7.31 | 7.25 | 6.65 | 6.25 | 6.88 | 6.74 | 6.39 | 7.58 | 6.13 | 7.33 | 7.62 | 5.44 | 6.96 | 6.73 | 7.74 | 7.51 | 6.35 | 6.77
COc1cccc(-c2cc(=O)c3ccccc3o2)c1N | 4.92 | 4.29 | < 4.3 | < 4.3 | < 4.3 | < 4.3 | < 4.3 | 4.32 | < 4.3 | < 4 | < 4.3 | 4.73 | < 4.3 | 4.45 | < 4.3 | 4.03 | 4.65 | 5.12 | < 4.3 | 4.88
C[C@@H](Oc1cc(-c2cnn(C3CCNCC3)c2)cnc1N)c1c(Cl)ccc(F)c1Cl | 6.28 | 5.63 | 5.46 | 5.31 | 5.42 | 5.57 | 5.59 | 5.23 | 5.38 | 4.73 | 5.71 | 5.14 | 5.44 | 5.42 | 5.78 | 5.79 | 5.02 | 5.55 | 5.47 | 5.33
O=C(O)c1ccc(-c2c[nH]c3ncc(-c4ccccc4)cc23)cc1C1CCCC1 | < 4.48 | < 4.48 | < 4.18 | < 4.18 | 5.97 | 5.8 | < 4.18 | < 4.18 | 5.13 | < 4.18 | < 4.18 | < 4.48 | < 4.18 | < 4.48 | 5.95 | < 4.48 | < 4.18 | < 4.48 | < 4.18 | 4.79
O=C1C(Cl)=C(NCCN2CCOCC2)C(=O)c2ncccc21 | 5.62 | 5.64 | 5.52 | 5.38 | 5.57 | 5.26 | 5.26 | 5.59 | 5.76 | 5.72 | 5.87 | 5.86 | 5.76 | 5.49 | 5.82 | 5.76 | 5.6 | 5.81 | 5.14 | 6.5
Cn1cnc2c(F)c(Nc3ccc(Br)cc3Cl)c(C(=O)NOCCO)cc21 [AZD6244] | 5.01 | < 4.3 | 5.75 | < 4.3 | 6.9 | 7.13 | < 4.3 | < 4.3 | 6.69 | 4.75 | < 4.3 | < 4.3 | 4.75 | < 4.3 | 6.5 | 6.66 | < 4.3 | < 4.3 | < 4.3 | < 4.3
O=c1[nH]c2ccccc2n1C1CCN(Cc2ccc(-c3[nH]c4cc5ncnc5cc4nc3-c3ccccc3)cc2)CC1 [Akt inhibitor VIII] | 5.85 | 4.9 | 5.74 | 5.31 | 5.56 | 4.94 | 5.73 | 5.17 | 5.01 | 6.03 | 4.86 | 5.68 | 6.13 | 5.09 | 5.58 | 5.12 | 5.45 | 5.61 | 4.82 | 5.95
C#Cc1cccc(Nc2ncnc3cc(OCCOC)c(OCCOC)cc23)c1 [Erlotinib] | 4.98 | < 4.18 | 5.76 | < 4.18 | 6.32 | 4.95 | 4.77 | < 4.18 | 6.27 | 5.2 | < 4.18 | 4.8 | < 4.18 | 5.7 | 6.64 | 4.93 | 4.91 | 4.93 | 4.33 | < 4.18
